Test results as given in patent US8957093B2, “N-biphenylmethylindole modulators of PPARG” (The Scripps Research Institute, priority 2011, dated 2015).
Read-outs that look alike come from different tables or passages of the source.

Legend:
[1] = biological target: GST-PPARG-LBD (Homo sapiens (Human), UniProt P37231); test: Lanthascreen PPARG competitive binding assay (Invitrogen, TR-FRET); conditions: inc = incomplete curve, NA = not active; for IC50: read-out: IC50 (nM) Lantha
Procedure: Lanthascreen PPARG Competitive Binding Assay (Invitrogen)
The assay was performed according to manufacturer protocol. A mixture of […], 5 nM Tb-GST-antibody, 5 nM Fluormone Pan-PPAR Green, and serial dilutions of the experimental compound, beginning at 10 μM downwards, was added to wells of black 384-well low-volume plates (Greiner) to a total volume of 18 μL. All dilutions were made in TR-FRET assay buffer C. DMSO at 2% final concentration was used as a no-ligand control. Experiment was performed in triplicate, and incubated for 2 hours in the dark prior to assay read in Perkin Elmer ViewLux ultra HTS microplate reader. FRET signal was measured by excitation at 340 nm and emission at 520 nm for fluorescein and 490 nm for terbium. Fold change over DMSO was calculated using GraphPad Prism Software (La Jolla, Calif.) by calculating 520 nm/490 nm ratio. Graphs were plotted as fold change of FRET signal for compound treatment over DMSO-only control.

[2] = biological target: Gal-4-PPAR (human PPAR LBD fused to GAL4 DNA-binding domain) (Homo sapiens (Human), UniProt P37231); test: GAL4-PPARG LBD / UAS-luciferase transactivation assay in HEK 293T cells; format: cell-based; conditions: for activation at 10 µM: HEK-293T, 18 h, read-out: % transactivation at 10 μM (GAL4); for EC50: GAL4 transactivation, HEK 293T cells, NA = not active, read-out: EC50 (nM) GAL4
[3] = Lanthascreen PPARG competitive binding
[4] = Lanthascreen competitive binding

Gal-4-PPAR (human PPAR LBD fused to GAL4 DNA-binding domain), sequence (P37231 238-503): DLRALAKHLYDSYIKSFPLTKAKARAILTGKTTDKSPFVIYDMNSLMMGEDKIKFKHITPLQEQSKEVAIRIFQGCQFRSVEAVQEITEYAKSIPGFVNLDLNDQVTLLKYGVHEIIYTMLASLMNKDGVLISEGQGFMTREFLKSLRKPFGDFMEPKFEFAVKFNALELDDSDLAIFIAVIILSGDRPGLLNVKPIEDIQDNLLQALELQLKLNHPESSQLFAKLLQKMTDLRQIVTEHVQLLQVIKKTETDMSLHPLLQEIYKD
GST-PPARG-LBD, sequence (P37231 238-503): as above

Row | SMILES | IC50 [1, 4] [nM] | activation at 10 µM [2] [%] | EC50 [2] [nM] | other results
1 | Cc1c(C)n(Cc2ccc(-c3ccccc3C(=O)NCCN(C)C)cc2)c2ccc(C(=O)N[C@@H](C)c3cccc(C(C)C)c3)cc12 [Example 310, (S)-1-((2′-((2-(Dimethylamino)ethyl)carbamoyl)-[1,1′-biphenyl]-4-yl)methyl)-N-(1-(3-isopropylphenyl)ethyl)-2,3-dimethyl-1H-indole-5-carboxamide] | – | – | – | IC50 [1, 3]: > 1000 nM
2 | Cc1c(C)n(Cc2ccc(-c3ccccc3C(=O)O)cc2)c2ccc(C(=O)NCC(=O)c3ccccc3)cc12 [compound 31, 4′-((2,3-Dimethyl-5-((2-oxo-2-phenylethyl)carbamoyl)-1H-indol-1-yl)methyl)-[1,1′-biphenyl]-2-carboxylic acid] | 244 | – | – | –
3 | CC(=O)NS(=O)(=O)c1ccccc1-c1ccc(Cn2c(C)c(C)c3cc(C(=O)N[C@@H](C)c4cccc(C(C)C)c4)ccc32)cc1 [Example 248, (S)-1-((2′-(N-acetylsulfamoyl)-[1,1′-biphenyl]-4-yl)methyl)-N-(1-(3-isopropylphenyl)ethyl)-2,3-dimethyl-1H-indole-5-carboxamide] | > 1000 | – | – | –
4 | C[C@H](NC(=O)c1ccc2c(ccn2Cc2ccc(-c3ccc(S(C)(=O)=O)cc3)cc2)c1)c1ccc([N+](=O)[O-])cc1 [Example 50, (S)-1-((4′-(Methylsulfonyl)-[1,1′-biphenyl]-4-yl)methyl)-N-(1-(4-nitrophenyl)ethyl)-1H-indole-5-carboxamide] | > 1000 | – | – | –
5 | Cc1c(C)n(Cc2ccc(-c3ccccc3C(=O)O)cc2)c2ccc(C(=O)N[C@@H](C)c3ccc(S(C)(=O)=O)cc3)cc12 [Example 258, (S)-4′-((2,3-dimethyl-5-(1-(4-(methylsulfonyl)phenyl)ethylcarbamoyl)-1H-indol-1-yl)methyl)biphenyl-2-carboxylic acid] | 636 | – | – | –
6 | Cc1c(C)n(Cc2ccc(-c3ccccc3C#N)cc2)c2ccc(C(=O)N[C@@H](C)c3cccc(F)c3)cc12 [Example 293, (S)-1-((2′-cyano-[1,1′-biphenyl]-4-yl)methyl)-N-(1-(3-fluorophenyl)ethyl)-2,3-dimethyl-1H-indole-5-carboxamide] | – | – | – | IC50 (nM) Lantha [1, 3]: inc
7 | COc1ccc([C@H](C)NC(=O)c2ccc3c(c2)c(C)c(C)n3Cc2ccc(-c3ccccc3C#N)cc2)cc1 [Example 285, (S)-1-((2′-cyano-[1,1′-biphenyl]-4-yl)methyl)-N-(1-(4-methoxyphenyl)ethyl)-2,3-dimethyl-1H-indole-5-carboxamide] | – | – | – | IC50 (nM) Lantha [1, 3]: inc
8 | C[C@H](NC(=O)c1ccc2c(ccn2Cc2ccc(-c3ccccc3)cc2)c1)c1ccc([N+](=O)[O-])cc1 [Example 38, (S)-1-([1,1′-Biphenyl]-4-ylmethyl)-N-(1-(4-nitrophenyl)ethyl)-1H-indole-5-carboxamide] | > 1000 | – | – | –
9 | Cc1c(C)n(Cc2ccc(-c3ccccc3C(=O)O)cc2)c2ccc(C(=O)NCc3cccc4ccccc34)cc12 [Example 115, 4′-((2,3-dimethyl-5-(naphthalen-1-ylmethylcarbamoyl)-1H-indol-1-yl)methyl)biphenyl-2-carboxylic acid] | 64 | – | – | –
10 | Cc1c(C)n(Cc2ccc(-c3ccccc3C(=O)N3CC[C@H](O)C3)cc2)c2ccc(C(=O)N[C@@H](C)c3cccc(C(C)C)c3)cc12 [Example 306, 1-((2′-((S)-3-Hydroxypyrrolidine-1-carbonyl)-[1,1′-biphenyl]-4-yl)methyl)-N-((S)-1-(3-isopropylphenyl)ethyl)-2,3-dimethyl-1H-indole-5-carboxamide] | – | – | – | IC50 [1, 3]: > 500 nM
11 | C[C@H](NC(=O)c1ccc2c(ccn2Cc2ccc(-c3ccc(C(=O)O)cc3)cc2)c1)c1ccc([N+](=O)[O-])cc1 [Example 59, (S)-4′-((5-((1-(4-Nitrophenyl)ethyl)carbamoyl)-1H-indol-1-yl)methyl)-[1,1′-biphenyl]-4-carboxylic acid] | > 1000 | – | – | –
12 | Cc1ccc(-c2ccc(Cn3ccc4cc(C(=O)N[C@@H](C)c5ccc([N+](=O)[O-])cc5)ccc43)cc2)cc1 [Example 57, (S)-1-((4′-Methyl-[1,1′-biphenyl]-4-yl)methyl)-N-(1-(4-nitrophenyl)ethyl)-1H-indole-5-carboxamide] | > 1000 | – | – | –
13 | Cc1c(C)n(Cc2ccc(-c3ccccc3C(=O)O)cc2)c2ccc(C(=O)N[C@H]3CCN(C(=O)OCc4ccccc4)C3)cc12 [Example 204, (S)-4′-((5-((1-((benzyloxy)carbonyl)pyrrolidin-3-yl)carbamoyl)-2,3-dimethyl-1H-indol-1-yl)methyl)-[1,1′-biphenyl]-2-carboxylic acid] | – | 0 | – | –
14 | Cc1c(C)n(Cc2ccc(-c3ccccc3C(=O)O)cc2)c2ccc(C(=O)N[C@@H](C)c3ccc(Cl)c(C(F)(F)F)c3)cc12 [Example 222, (S)-4′-((5-((1-(4-chloro-3-(trifluoromethyl)phenyl)ethyl)carbamoyl)-2,3-dimethyl-1H-indol-1-yl)methyl)-[1,1′-biphenyl]-2-carboxylic acid] | – | 5 | 193 | –
15 | CC[C@@H](NC(=O)c1ccc2c(c1)c(C)c(C)n2Cc1ccccc1-c1cccc(C(=O)O)c1)c1ccccc1 [Example 193, (R)-2′-((2,3-dimethyl-5-((1-phenylpropyl)carbamoyl)-1H-indol-1-yl)methyl)-[1,1′-biphenyl]-3-carboxylic acid] | – | 40 | 191 | –
16 | Cc1c(C)n(Cc2ccc(-c3ccccc3C(=O)O)cc2)c2ccc(C(=O)NCc3ccc(C(F)(F)F)cc3F)cc12 [Example 167, 4′-((5-((2-fluoro-4-(trifluoromethyl)benzyl)carbamoyl)-2,3-dimethyl-1H-indol-1-yl)methyl)-[1,1′-biphenyl]-2-carboxylic acid] | – | 10 | 596 | –
17 | Cc1c(C)n(Cc2ccc(-c3ccccc3C(=O)O)cc2)c2ccc(C(=O)NCc3ccc(Cl)cc3Cl)cc12 [Example 168, 4′-((5-((2,4-dichlorobenzyl)carbamoyl)-2,3-dimethyl-1H-indol-1-yl)methyl)-[1,1′-biphenyl]-2-carboxylic acid] | – | 18 | 931 | –
18 | Cc1c(C)n(Cc2ccc(-c3ccccc3C(=O)O)cc2)c2ccc(C(=O)N[C@@H](C)c3ccc(OC(C)C)cc3)cc12 [Example 201, (S)-4′-((5-((1-(4-isopropoxyphenyl)ethyl)carbamoyl)-2,3-dimethyl-1H-indol-1-yl)methyl)-[1,1′-biphenyl]-2-carboxylic acid] | – | 10 | 941 | –
19 | CC[C@@H](NC(=O)c1ccc2c(c1)c(C)c(C)n2Cc1ccccc1-c1ccc(C(=O)O)cc1)c1ccccc1 [Example 195, (R)-2′-((2,3-dimethyl-5-((1-phenylpropyl)carbamoyl)-1H-indol-1-yl)methyl)-[1,1′-biphenyl]-4-carboxylic acid] | – | 35 | 169 | –
20 | CC[C@H](NC(=O)c1ccc2c(c1)c(C)c(C)n2Cc1ccccc1-c1cccc(C(=O)O)c1)c1ccccc1 [Example 194, (S)-2′-((2,3-dimethyl-5-((1-phenylpropyl)carbamoyl)-1H-indol-1-yl)methyl)-[1,1′-biphenyl]-3-carboxylic acid] | – | 18 | 793 | –
21 | Cc1c(C)n(Cc2ccc(-c3ccccc3C(=O)O)cc2)c2ccc(C(=O)N[C@@H](C)c3cccc(OC(C)C)c3)cc12 [Example 199, (S)-4′-((5-((1-(3-isopropoxyphenyl)ethyl)carbamoyl)-2,3-dimethyl-1H-indol-1-yl)methyl)-[1,1′-biphenyl]-2-carboxylic acid] | – | 10 | 2750 | –
